The text below walks through data of PubChem BioAssay AID1671465 (Sanford-Burnham Center for Chemical Genomics, 2021).

Activity calls are given as the source filed them.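 Rule for the calls: active = compounds whose mean EC50 for raising GC-A cGMP output is under 66 µM; inactive = the rest.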

In the experiment the target is Atrial natriuretic peptide receptor 1 (Homo sapiens) (UniProt P16066). Nature of the experiment: GC-A receptor activator analogs potency, SAR follow-up, HEK293 GC-A cells, cGMP TR-FRET, powder samples (AID 1671465). To be noted: EC30 ANP.
Atrial natriuretic peptide receptor 1 (Homo sapiens), sequence (P16066 whole entry, looked up): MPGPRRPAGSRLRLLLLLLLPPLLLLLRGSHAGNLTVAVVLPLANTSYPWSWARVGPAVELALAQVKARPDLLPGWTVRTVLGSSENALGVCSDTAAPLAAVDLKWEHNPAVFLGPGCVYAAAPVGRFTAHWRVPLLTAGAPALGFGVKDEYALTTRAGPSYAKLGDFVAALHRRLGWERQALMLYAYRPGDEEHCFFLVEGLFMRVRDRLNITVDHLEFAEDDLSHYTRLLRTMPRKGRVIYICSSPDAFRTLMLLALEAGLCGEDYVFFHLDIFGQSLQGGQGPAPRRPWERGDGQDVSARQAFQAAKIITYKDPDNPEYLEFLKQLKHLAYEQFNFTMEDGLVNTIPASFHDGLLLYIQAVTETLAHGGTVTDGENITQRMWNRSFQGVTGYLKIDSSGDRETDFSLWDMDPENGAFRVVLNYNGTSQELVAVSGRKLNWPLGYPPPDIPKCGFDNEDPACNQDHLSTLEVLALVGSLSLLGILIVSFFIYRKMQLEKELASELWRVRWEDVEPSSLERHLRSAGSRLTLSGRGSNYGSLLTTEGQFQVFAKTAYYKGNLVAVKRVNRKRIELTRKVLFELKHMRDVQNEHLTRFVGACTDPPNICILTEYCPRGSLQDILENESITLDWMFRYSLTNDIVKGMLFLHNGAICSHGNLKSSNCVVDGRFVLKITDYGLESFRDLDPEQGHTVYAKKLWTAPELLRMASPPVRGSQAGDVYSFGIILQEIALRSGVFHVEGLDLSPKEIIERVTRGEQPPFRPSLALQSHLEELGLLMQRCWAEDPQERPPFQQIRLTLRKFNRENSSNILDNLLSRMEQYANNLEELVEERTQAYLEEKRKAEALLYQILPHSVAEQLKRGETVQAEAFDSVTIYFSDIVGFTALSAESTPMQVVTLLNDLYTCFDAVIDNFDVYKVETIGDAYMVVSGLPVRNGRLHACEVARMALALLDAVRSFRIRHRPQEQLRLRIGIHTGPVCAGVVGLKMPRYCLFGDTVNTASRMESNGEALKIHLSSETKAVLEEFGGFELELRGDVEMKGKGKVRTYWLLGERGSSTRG
Regarding `O=C(Nc1nc2c(F)cc(F)cc2s1)C1CCN(C(=O)C2CCC2)CC1`, the concentration giving a half-maximal response (EC50) was 1720 nM.
In the case of `CC(C)(C)OC(=O)N1CCCC(C(=O)Nc2nc3c(F)cc(F)cc3s2)C1` (stereo unspecified) it was 8260 nM.
For the molecule `CN1CCCC(C(=O)Nc2nc3c(F)cc(F)cc3s2)C1` (stereo unspecified), the 50% effective concentration (EC50) is 1230 nM.
For the molecule `CN(C)CCN1CCCC(C(=O)Nc2nc3c(F)cc(F)cc3s2)C1` (stereo unspecified), the EC50 is 393 nM.
`CC(=O)Nc1nc2c(F)cc(F)cc2s1`: the half-maximal effective concentration (EC50) was 23900 nM.
Consider `O=C(Nc1nc2c(F)cc(F)cc2s1)C1CCCN(Cc2ccccc2)C1` (stereo unspecified), for which the EC50 is 2410 nM.
Take `O=C(Nc1nc2c(F)cc(F)cc2s1)C1CCCN(C(=O)c2ccccc2)C1` (stereo unspecified): the EC50 was 3360 nM.
Next, `O=C(Nc1nc2c(F)cc(F)cc2s1)C1CCCNC1` (stereo unspecified): 1050 nM; `CC(C)(C)C(=O)N1CCC(C(=O)Nc2nc3c(Cl)ccc(Cl)c3s2)CC1`: > 66700 nM (inactive).
As for `O=C(Nc1nc2c(F)cc(F)cc2s1)C1CCCN(C(=O)C2CC2)C1` (stereo unspecified), the EC50 was 1970 nM.
Take `CC(C)(C)C(=O)N1CCCC(C(=O)Nc2nc3c(F)cc(F)cc3s2)C1` (stereo unspecified): the EC50 was 5070 nM.
Next, `O=C(Nc1nc2c(F)cc(F)cc2s1)C1CCCN(C(=O)Cc2ccccc2)C1` (stereo unspecified): 2020 nM; `CC(C)(C)CC(=O)N1CCCC(C(=O)Nc2nc3c(F)cc(F)cc3s2)C1` (stereo unspecified): 3570 nM; `CC(C)(C)C(=O)N1CCC(C(=O)Nc2nc3c(F)cc(F)cc3s2)C1` (stereo unspecified): 2090 nM.
Take `CC(C)N1CCC(C(=O)Nc2nc3c(F)cc(F)cc3s2)CC1`: the concentration for a half-maximal effect (EC50) was 840 nM.
For the molecule `CC(C)(C)C(=O)N1CCC(C(=O)Nc2nc3c(Cl)cccc3s2)CC1`, the EC50 was 2000 nM.
In the case of `O=C(Nc1nc2c(F)cc(F)cc2s1)C1CCCCC1` it was 2730 nM; in that of `CC(=O)N1CCCC(C(=O)Nc2nc3c(F)cc(F)cc3s2)C1` (stereo unspecified), 1650 nM; in that of `CS(=O)(=O)N1CCCC(C(=O)Nc2nc3c(F)cc(F)cc3s2)C1` (stereo unspecified), 1750 nM.
In the case of `CC(=O)N1CCC(C(=O)Nc2nc3c(F)cc(F)cc3s2)CC1` it was 1150 nM; in that of `O=C(Nc1nc2c(F)cc(F)cc2s1)C1CCCN(C(=O)C2CCC2)C1` (stereo unspecified), 1810 nM.
